A short description of data set [1]: Reactivity with hydroxyl radical (Fenton system: hydrogen peroxide and ferrous perchlorate), fluorescence intensity. The note with it: for changes in fluorescence intensity between before and after treatment, Hydroxyl radical: 10 μM probe, 100 mM sodium phosphate buffer pH 7.4, Iron(II) perchlorate (100 μM) and hydrogen peroxide (1 mM), 30 minutes, ex 490 nm/em 510 nm; for reactivity to hydroxyl radical (in words): condition a of Table 1. On the procedure: (§1) The excitation spectrum and the fluorescence spectrum of the 10 μM ss-3F solution were measured using a fluorophotometer F4500 (manufactured by Hitachi, Ltd.). Slit width was 2.5 nm for both the excitation spectrum and the fluorescence spectrum, and the photomultiplier voltage was 950 V. Measurement was carried out at the excitation wavelength of 490 nm and the fluorescence wavelength of 510 nm unless otherwise specified.
Further, to investigate the reaction between ss-3F and hydroxyl radical, hydrogen peroxide was added to the 10 μM ss-3F solution to a final concentration of 1 mM, and then the mixture was added with ferrous perchlorate to a final concentration of 100 μM for each addition (5 times in total) to measure changes in fluorescence intensity with time (Fenton system).
(§2) The solutions described below were analyzed by HPLC. The absorbance at 460 nm was measured using XTerra™RP18 5 μm (4.6×250 mm) as a column and an aqueous solution of acetonitrile/0.1M NaHCO3=1/1 as an eluate with an elution rate of 1 ml/min. • (A) the 10 μM ss-3F solution • (B) a reaction solution prepared by adding EP-1 to the 10 μM ss-3F solution so as to give a final concentration of 5 mM and reacting at 37° C. for 8 hours • (C) a solution prepared by adding hydrogen peroxide to the 10 μM ss-3F solution so as to give a final concentration of 1 mM, and further adding ferrous perchlorate so as to give a final concentration of 500 μM, and then allowing to stand at room temperature for about 3 hours • (D) a 1 μM fluorescein solution
(§3) The compounds of the present invention, ss-1F, and ss-3F were tested. DCFH (2′,7′-dichlorodihydrofluorescein) was used as a control which was produced by hydrolyzing DCFH-DA (2′,7′-dichlorodihydrofluorescein diacetate; Molecular Probes, D-399) as a commercially available agent for detecting reactive oxygen species. DCFH-DA was hydrolyzed in accordance with the method by Hempel et al. (Stephen L. Hempel et al., Free Radical Biology & Medicine, 27, 146–159, 1999) under an alkali condition to obtain DCFH. […] The 10 μM DCFH solution was used for the test immediately after the preparation. […] Each of ss-1F, ss-3F, and DCFH was treated under conditions “a” to “f” for 30 minutes (2 hours and 30 minutes only for “f”) and changes in fluorescence intensity between before and after treatment were measured. The fluorescence intensity was measured under the same conditions as those in Example 4.

Data set [2] is described as follows: Reactivity with nitrogen monoxide (NOC13), fluorescence intensity. The note with it: 10 μM probe, 100 mM sodium phosphate buffer pH 7.4; NOC13 (100 μM); 30 minutes. On the procedure:
as §1, §3

A short description of data set [3]: Reactivity with singlet oxygen (EP-1 naphthalene endoperoxide system), fluorescence intensity. The note with it: for changes in fluorescence intensity between before and after treatment, Singlet oxygen: 10 μM probe, 100 mM sodium phosphate buffer pH 7.4, EP-1 (100 μM), 30 minutes. On the procedure: as §1
Subsequently, in order to investigate the reaction between ss-3F and singlet oxygen, a solution of EP-1 (a singlet oxygen generation system, i.e., the naphthalene endoperoxide compound; Saito, I, .et al., J. Am. Chem. Soc., 107, pp. 6329–6334, 1985) in dimethylformamide (DMF) was added to the 10 μM ss-3F solution to final concentrations of 1 mM, 2 mM, and 5 mM, and changes in fluorescence intensity with time was measured (EP-1 system). The temperature of the solution at this time was at 37° C. The excitation spectrum and the fluorescence spectrum of the solution after the completion of the reaction were measured under the same conditions as described above. […] Also in FIG. 3, generation of fluorescence was observed, and it was verified that ss-3F generated fluorescence upon reaction with singlet oxygen.
as §2
(§4) A fluorescence spectrum of ss-3 obtained in Example 1 was measured under the same conditions as those in 1) of Example 4, except that the excitation wavelength was at 370 nm and the fluorescence wavelength was at 450 nm. The result obtained in the absence of EP-1 was shown in FIG. 7, and the result of fluorescence spectrum of the solution after the completion of the reaction with EP-1 was shown in FIG. 8.
as §3

Data set [4] is described as follows: Reactivity with superoxide (KO2), fluorescence intensity. The note with it: 10 μM probe, 100 mM sodium phosphate buffer pH 7.4; KO2 (100 μM); 30 minutes. On the procedure:
as §1, §3

Data set [5] is described as follows: Reactivity with hydrogen peroxide, fluorescence intensity. The note with it: for changes in fluorescence intensity between before and after treatment, Hydrogen peroxide: 10 μM probe, 100 mM sodium phosphate buffer pH 7.4, Hydrogen peroxide (1 mM), 30 minutes; for reaction with hydrogen peroxide per se (in words): result of Example 6. On the procedure:
as §1, §3

The nature of data set [6]: Autoxidation under a fluorescent lamp, fluorescence intensity. In kind it is physicochemical. The note with it: for changes in fluorescence intensity between before and after treatment, Autoxidation: 10 μM probe, 100 mM sodium phosphate buffer pH 7.4, just under a fluorescent lamp for 2 hours and 30 minutes; for autoxidation (in words): condition f of Table 1. On the procedure: as §1, §3

The next data set relates to horseradish peroxidase. Briefly: Specific detection of peroxidase activity (HRP/H2O2), fluorescence spectrum. The note with it: 10 μM probe, horseradish peroxidase 0.2 μM, hydrogen peroxide 0 to 5.0 μM, pH 7.4; fluorescence wavelength 515 nm. In kind it is biochemical. The procedure:
A 100 mM phosphate buffer (pH 7.4) of horseradish peroxidase was added to the resulting solution of ss-1F or ss-3F to a final concentration of 0.2 μM, and then hydrogen peroxide was added to final concentrations of 0, 0.01, 0.05, 0.1, 0.5, 1.0, 2.0, and 5.0 μM, and the fluorescence spectrum was immediately measured. The fluorescence spectrum was measured under the same conditions as those in 1) of Example 4, except that the fluorescence wavelength was at 515 nm.

Data set [7] in a line: Excitation and fluorescence spectrum of the compound itself. In kind it is physicochemical. The procedure:
as §1, §4

Molecules are shown by their SMILES. “Also recorded” adds a separate entry of the source.

For the molecule `O=C(O)c1ccccc1C1c2cc(Cl)c(O)cc2Oc2cc(O)c(Cl)cc21` [DCFH, 2′,7′-dichlorodihydrofluorescein, reference compound], in data set [1], the “changes in fluorescence intensity between before and after treatment, Hydroxyl radical” value (“changes … after treatment, Hydroxyl radical” below) is 4.8 × 10^3; the “reactivity to hydroxyl radical (in words)” value (“reactivity” for short) is on record as “successfully reacted with hydroxyl radical”. Besides, in data set [2], the “changes in fluorescence intensity between before and after treatment, Nitrogen monoxide” value (“changes … Nitrogen monoxide” for short) is on record as 1.5 × 10^2. For the same molecule, the “changes in fluorescence intensity between before and after treatment, Singlet oxygen” value (“changes … after treatment, Singlet oxygen” below) in data set [3] came out at 26. Moreover, in data set [4], the “changes in fluorescence intensity between before and after treatment, Superoxide” value (shortened to “changes … Superoxide”) stood at 67. Further, in data set [5], the “changes in fluorescence intensity between before and after treatment, Hydrogen peroxide” value (from here on “changes … Hydrogen peroxide”) is recorded as 1.9 × 10^2. Moreover, in data set [6], the “changes in fluorescence intensity between before and after treatment, Autoxidation” value (“changes … Autoxidation” below) is given as 1.6 × 10^3; the “autoxidation (in words)” value is “high”.
In the case of `O=C(O)c1ccccc1-c1c2ccc(=O)cc-2oc2cc(Oc3ccc(O)cc3)ccc12` [ss-1F], in data set [1], the “changes … after treatment, Hydroxyl radical” value is 3.3 × 10^2; the “reactivity” value is “high reactivity to hydroxyl radical”. Moreover, the “changes … Nitrogen monoxide” value in data set [2] is 6.0. Moreover, the “fluorescence intensity with HRP/H2O2” value in the data set on horseradish peroxidase is “increase in fluorescence intensity in a concentration-dependent manner”. Further, the “changes … after treatment, Singlet oxygen” value in data set [3] was found to be 4.8. Besides, in data set [4], the “changes … Superoxide” value turned out to be 8.3. In addition, in data set [5], the “changes … Hydrogen peroxide” value was 1.8; the “reaction with hydrogen peroxide per se (in words)” value is recorded as “do not react with hydrogen peroxide”. Also, in data set [6], the “changes … Autoxidation” value is under 1.0; the “autoxidation (in words)” value is recorded as “completely free from autoxidation; also recorded: no autoxidation”.
Regarding `Nc1ccc(Oc2ccc3c(-c4ccccc4C(=O)O)c4ccc(=O)cc-4oc3c2)cc1` [ss-3F], in data set [1], the “changes … after treatment, Hydroxyl radical” value is reported as 6.0 × 10^2; the “reactivity” value was “high reactivity to hydroxyl radical”. Besides, in data set [1] (10 μM solution, hydrogen peroxide 1 mM, ferrous perchlorate 100 μM per addition (5 times)), the “changes in fluorescence intensity with time on reaction with hydroxyl radical” value is on record as “increase in fluorescence intensity was observed at each time of the addition of ferrous perchlorate”. Besides, the “changes … Nitrogen monoxide” value in data set [2] was under 1.0. In addition, the “fluorescence intensity with HRP/H2O2” value in the data set with horseradish peroxidase was “increase in fluorescence intensity in a concentration-dependent manner”. For the same molecule, in data set [3], the “changes … after treatment, Singlet oxygen” value was 8.7. Further, in data set [3] (10 μM solution, EP-1 1 mM, 2 mM, 5 mM, 37° C., ex 490 nm/em 510 nm), the “changes in fluorescence intensity with time on reaction with singlet oxygen” value is reported as “increase in fluorescence intensity was observed dependently on EP-1 concentrations as well as in time dependent manner”. The “changes … Superoxide” value in data set [4] was determined as 5.6. In data set [5], the “changes … Hydrogen peroxide” value is recorded as under 1.0; the “reaction with hydrogen peroxide per se (in words)” value is “do not react with hydrogen peroxide”. Further, in data set [7] (10 μM in 100 mM sodium phosphate buffer pH 7.4, excitation 490 nm, fluorescence 510 nm), the “fluorescence of the compound per se” value is “emits no fluorescence”. In data set [6], the “changes … Autoxidation” value is reported as under 1.0; the “autoxidation (in words)” value is “completely free from autoxidation; also recorded: no autoxidation”.
`Nc1ccc(Oc2ccc3ccc(=O)oc3c2)cc1` [ss-3]: in data set [3] (after completion of the reaction with EP-1, excitation 370 nm, fluorescence 450 nm), the “fluorescence after reaction with singlet oxygen” value is reported as “emits fluorescence upon reaction with singlet oxygen”. For the same molecule, the “fluorescence of the compound itself” value in data set [7] (absence of EP-1, excitation 370 nm, fluorescence 450 nm) is listed as “substantially non-fluorescent”.

For the origin of these results see patent US7087766B2, “Reagents for the quantitation of active oxygen” (Daiichi Pure Chemicals Co., Ltd., priority 2000, dated 2006).
